The target in assay [1] is T1, RpfR (Burkholderia cenocepacia, UniProt B4EKM4).
T1 construct: gene BCAM0580; full-length rpfR in pQE-32 (BamHI/HindIII; vector with N-terminal His tag), expressed in E. coli M15[pREP4], purified
The assay is described as follows: DGC assay, products by anion-exchange FPLC (ResourceQ). It counts as biochemical. The following applies: 2 uM enzyme, 100 uM substrate, 50 mM Tris-Cl pH 7.8, 500 mM NaCl, 2 mM MgCl2, 37 °C, 180 min; product pGpG.

The target of assay [2] is T1, RpfR. The assay is described as follows: PDE assay, products by anion-exchange FPLC (ResourceQ). To be noted: 2 uM enzyme, 100 uM substrate, 50 mM Tris-Cl pH 7.8, 500 mM NaCl, 2 mM MgCl2, 37 °C, 180 min; product pGpG. In kind it is biochemical.

The values below come from publication PMC9684580, “The BDSF quorum sensing receptor RpfR regulates Bep exopolysaccharide synthesis in Burkholderia cenocepacia via interaction with the transcriptional regulator BerB” (NPJ Biofilms and Microbiomes, 2022).

T1 sequence (B4EKM4 entry or part of it): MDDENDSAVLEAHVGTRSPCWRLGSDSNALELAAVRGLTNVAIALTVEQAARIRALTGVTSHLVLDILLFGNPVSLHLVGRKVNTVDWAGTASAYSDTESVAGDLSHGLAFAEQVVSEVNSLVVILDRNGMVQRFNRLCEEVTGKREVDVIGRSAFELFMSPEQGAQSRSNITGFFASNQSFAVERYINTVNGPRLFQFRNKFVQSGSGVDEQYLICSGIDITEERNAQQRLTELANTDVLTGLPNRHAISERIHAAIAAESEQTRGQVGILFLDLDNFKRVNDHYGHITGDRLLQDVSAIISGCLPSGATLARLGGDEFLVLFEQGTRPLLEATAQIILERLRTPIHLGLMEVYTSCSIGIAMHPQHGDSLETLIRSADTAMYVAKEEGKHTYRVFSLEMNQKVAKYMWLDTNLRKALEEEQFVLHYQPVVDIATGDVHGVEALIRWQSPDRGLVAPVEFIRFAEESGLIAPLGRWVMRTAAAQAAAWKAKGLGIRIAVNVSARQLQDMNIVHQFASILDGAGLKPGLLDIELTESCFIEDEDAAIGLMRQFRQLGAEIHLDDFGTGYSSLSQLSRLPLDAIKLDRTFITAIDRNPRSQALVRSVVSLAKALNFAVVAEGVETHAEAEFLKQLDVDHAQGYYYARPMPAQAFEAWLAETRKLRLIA

As for `Nc1nc2c(ncn2[C@@H]2O[C@H](COP(=O)(O)OP(=O)(O)OP(=O)(O)O)[C@@H](O)[C@H]2O)c(=O)[nH]1` [GTP], the “DGC assay, products by anion-exchange FPLC (ResourceQ)” value at RpfR [1] is “Wild-type RpfR metabolized GTP as well as c-di-GMP, generating pGpG from both substrates”. As to `Nc1nc2c(ncn2[C@@H]2O[C@@H]3COP(=O)(O)O[C@H]4[C@@H](O)[C@H](n5cnc6c(=O)[nH]c(N)nc65)O[C@@H]4COP(=O)(O)O[C@H]3[C@H]2O)c(=O)[nH]1` [c-di-GMP], the “PDE assay, products by anion-exchange FPLC (ResourceQ)” value on RpfR [2] was “Wild-type RpfR metabolized GTP as well as c-di-GMP, generating pGpG from both substrates”.
